Literature values in patent US20150267258A1, “BIOMARKERS FOR DETERMINING EFFECTIVE RESPONSE OF TREATMENTS OF HEPATOCELLULAR CARCINOMA (HCC) PATIENTS” (BAYER PHARMA AKTIENGESELLSCHAFT, priority 2012, published 2015).

How the values were obtained:
[1] = tested on: metastatic colorectal cancer; details: patients with metastatic colorectal cancer

SMILES | Overall survival [1] | Effectiveness in lung cancer (lung cancer)
CNC(=O)c1cc(Oc2ccc(NC(=O)Nc3ccc(Cl)c(C(F)(F)F)c3)c(F)c2)ccn1 [Regorafenib, 4-[4-({[4-Chloro-3-(trifluoromethyl)phenyl]carbamoyl}amino)-3-fluorophenoxy]-N-methylpyridine-2-carboxamide] | increase the overall survival | 
CNC(=O)c1cc(Oc2ccc(NC(=O)Nc3ccc(Cl)c(C(F)(F)F)c3)cc2)ccn1 [Sorafenib, 4-[4-[[4-chloro-3-(trifluoromethyl)phenyl]carbamoylamino]phenoxy]-N-methyl-pyridine-2-carboxamide] |  | effective in lung cancer
